Like-named read-outs stand apart in the source and are kept apart here.
Experiment: Single-dose escalation pharmacokinetics in volunteers
Assay type: in vivo, human
Settings: for AUC(0-t): read-out: AUC0-24h
Description: Exposure of the free base form of N-[5-(aminosulfonyl)-4-methyl-1,3-thiazol-2-yl]-N-methyl-2-[4-(2-pyridinyl)-phenyl]acetamide to the human body may be measured by high pressure liquid chromatography (HPLC) by looking at different pharmacokinetic parameters in suitable bodily fluids such as for instance blood plasma and urine, the most common parameters being the Cmax, the so-called area under the curve (AUC), and the terminal half-life (t1/2Z). Hereto, the person skilled in the art understands that said parameters are determined by using adequate bioanalytical methods with adequate sensitivity, specificity, ruggedness, stability and repeatability, as for instance a qualified liquid chromatography triple quad mass spectrometry based method coupled with a suitable extraction method for the separation of the analyte from, e.g. the blood plasma.
Therefore, pharmacokinetic studies in human subjects were undertaken following both single and multiple dose administrations of the crystalline mono mesylate monohydrate salt of N-[5-(aminosulfonyl)-4-methyl-1,3-thiazol-2-yl]-N-methyl-2-[4-(2-pyridinyl)phenyl]acetamide, wherein the particle size distribution is preferably defined by d(0.1) from 2 to 100 μm, d(0.5) from 30 to 210 μm and d(0.9) from 70 to 400 μm with a specific surface area of the particles less than 1.0 m^2/g, and more preferably defined by d(0.1) from 10 to 75 μm, d(0.5) from 100 to 175 μm, d(0.9) from 200 to 350 μm with a specific surface area of the particles less than 0.3 m^2/g.
Single oral doses of the crystalline mono mesylate monohydrate salt of N-[5-(aminosulfonyl)-4methyl1,3thiazol-2-yl]-N-methyl-2-[4-(2-pyridinyl)phenyl]acetamide using the formulations in accordance with example a and Table a, were administered to six volunteers per dose step. The overall shape of the plasma concentrations vs. time profiles were similar across all doses applied (see FIG. 4 and FIG. 6).
Table b: Pharmacokinetic parameters after ascending single oral doses of crystalline mono mesylate monohydrate salt of N-[5-(aminosulfonyl)-4-methyl-1,3-thiazol-2-yl]-N-methyl-2-[4-(2-pyridinyl)phenyl]acetamide in the formulations in accordance with table a wherein the particle size distribution is preferably defined by d(0.1) from 2 to 100 μm, d(0.5) from 30 to 210 μm and d(0.9) from 70 to 400 μm with a specific surface area of the particles less than 1.0 m^2/g, and more preferably defined by d(0.1) from 10 to 75 μm, d(0.5) from 100 to 175 μm, d(0.9) from 200 to 350 μm with a specific surface area of the particles less than 0.3 m^2/g.
AUC0-∞: Area under the analyte vs. time concentration from time of administration up to infinity, calculated as
wherein AUC0-last is defined as the area under the analyte vs. time concentration up to time of the last qualifiable concentration, calculated by linear up/log down summation and Clast is defined as last quantifiable observed analyte concentration. λz is the apparent terminal elimination rate constant, determined by linear regression of terminal points of In-linear analyte concentration-time curve.
Cmax is the maximal observed analyte concentration and tmax is the time to reach Cmax;
t1/2z is defined as the apparent terminal elimination half-life, calculated as
MRT: Mean Residence Time; calculated AUMC divided by AUC, wherein AUMC is the area under the first moment of the concentration-time curve from zero up to ∞ with extrapolation of the terminal phase and AUC is the area under the concentration-time curve from zero up to ∞ with extrapolation of the terminal phase.
CL/F refers to the clearance after oral administration of a drug and Ae refers to the amount of drug excreted in the urine.

t1/2z on average (40 mg dosage as free base equivalent, single oral dose): 72 ± 3 h
t1/2z on average (80 mg dosage as free base equivalent, single oral dose): 74 ± 5 h
t1/2z on average (160 mg dosage as free base equivalent, single oral dose): 63 ± 6 h
t1/2z on average (240 mg dosage as free base equivalent, single oral dose): 64 ± 5 h
t1/2z on average (320 mg dosage as free base equivalent, single oral dose): 57 ± 3 h
t1/2z on average (400 mg dosage as free base equivalent, single oral dose): 57 ± 4 h
t1/2z on average (480 mg dosage as free base equivalent, single oral dose): 53 ± 4 h
MRT (female, plasma, single oral dose 80 mg free base equivalent, females, human, mean, n = 6): 77 h
Tmax (female, plasma, single oral dose 80 mg free base equivalent, females, human, median, n = 6, read-out: tmax): 4 h
AUC(0-inf) (female, single oral dose 80 mg free base equivalent, females, human, mean, n = 6, free base in plasma): 96200 ng·h/mL
Cmax (female, single oral dose 80 mg free base equivalent, females, human, mean, n = 6, free base in plasma, read-out: Cmax): 2000 ng/mL
AUC(0-t) (human, plasma, 80 mg dosage as free base equivalent, single oral dose): 21900 ± 2060 ng·h/mL
Cmax (human, plasma, 80 mg dosage as free base equivalent, single oral dose, read-out: mean maximum blood plasma concentration (mean Cmax) of the free base): 1310 ± 125 ng/mL
AUC(0-t) (human, plasma, 160 mg dosage as free base equivalent, single oral dose): 40500 ± 16700 ng·h/mL
Cmax (human, plasma, 160 mg dosage as free base equivalent, single oral dose, read-out: mean maximum blood plasma concentration (mean Cmax) of the free base): 2610 ± 1340 ng/mL
AUC(0-t) (human, plasma, 240 mg dosage as free base equivalent, single oral dose): 59600 ± 12800 ng·h/mL
Cmax (human, plasma, 240 mg dosage as free base equivalent, single oral dose, read-out: mean maximum blood plasma concentration (mean Cmax) of the free base): 3600 ± 752 ng/mL
AUC(0-t) (human, plasma, 320 mg dosage as free base equivalent, single oral dose): 76200 ± 27600 ng·h/mL
Cmax (human, plasma, 320 mg dosage as free base equivalent, single oral dose, read-out: mean maximum blood plasma concentration (mean Cmax) of the free base): 4650 ± 1810 ng/mL
AUC(0-t) (human, plasma, 400 mg dosage as free base equivalent, single oral dose): 105000 ± 25700 ng·h/mL
Cmax (human, plasma, 400 mg dosage as free base equivalent, single oral dose, read-out: mean maximum blood plasma concentration (mean Cmax) of the free base): 6930 ± 1660 ng/mL
AUC(0-t) (human, plasma, 480 mg dosage as free base equivalent, single oral dose): 113000 ± 34300 ng·h/mL
Cmax (human, plasma, 480 mg dosage as free base equivalent, single oral dose, read-out: mean maximum blood plasma concentration (mean Cmax) of the free base): 6920 ± 2190 ng/mL
AUC(0-t) (male, human, plasma, 40 mg dosage as free base equivalent, single oral dose): 10100 ± 3110 ng·h/mL
Cmax (male, human, plasma, 40 mg dosage as free base equivalent, single oral dose, read-out: mean maximum blood plasma concentration (mean Cmax) of the free base): 608 ± 184 ng/mL
MRT (male, plasma, single oral dose 80 mg free base equivalent, males, human, mean, n = 6): 94 h
Tmax (male, plasma, single oral dose 80 mg free base equivalent, males, human, median, n = 6, read-out: tmax): 2.5 h
AUC(0-inf) (male, single oral dose 80 mg free base equivalent, males, human, mean, n = 6, free base in plasma): 87200 ng·h/mL
Cmax (male, single oral dose 80 mg free base equivalent, males, human, mean, n = 6, free base in plasma, read-out: Cmax): 1310 ng/mL
MRT (plasma, single oral dose 5 mg free base equivalent, human, mean, n = 6): 117 h
Tmax (plasma, single oral dose 5 mg free base equivalent, human, median, n = 6, read-out: tmax): 4 h
MRT (plasma, single oral dose 10 mg free base equivalent, human, mean, n = 6): 116 h
Tmax (plasma, single oral dose 10 mg free base equivalent, human, median, n = 6, read-out: tmax): 1.5 h
MRT (plasma, single oral dose 20 mg free base equivalent, human, mean, n = 6): 105 h
Tmax (plasma, single oral dose 20 mg free base equivalent, human, median, n = 6, read-out: tmax): 2.77 h
MRT (plasma, single oral dose 40 mg free base equivalent, human, mean, n = 6): 94 h
Tmax (plasma, single oral dose 40 mg free base equivalent, human, median, n = 6, read-out: tmax): 3.5 h
MRT (plasma, single oral dose 160 mg free base equivalent, human, mean, n = 6): 83 h
Tmax (plasma, single oral dose 160 mg free base equivalent, human, median, n = 6, read-out: tmax): 3.5 h
MRT (plasma, single oral dose 240 mg free base equivalent, human, mean, n = 6): 82 h
Tmax (plasma, single oral dose 240 mg free base equivalent, human, median, n = 6, read-out: tmax): 4 h
MRT (plasma, single oral dose 320 mg free base equivalent, human, mean, n = 6): 70 h
Tmax (plasma, single oral dose 320 mg free base equivalent, human, median, n = 6, read-out: tmax): 2.25 h
MRT (plasma, single oral dose 400 mg free base equivalent, human, mean, n = 6): 64 h
Tmax (plasma, single oral dose 400 mg free base equivalent, human, median, n = 6, read-out: tmax): 4.25 h
MRT (plasma, single oral dose 480 mg free base equivalent, human, mean, n = 6): 72 h
Tmax (plasma, single oral dose 480 mg free base equivalent, human, median, n = 6, read-out: tmax): 3.25 h
MRT (plasma, single oral dose 600 mg free base equivalent, human, mean, n = 6): 65 h
Tmax (plasma, single oral dose 600 mg free base equivalent, human, median, n = 6, read-out: tmax): 4.25 h
Tmax (plasma, single oral doses 5-600 mg free base equivalent, human, no obvious relation to dose, read-out: median tmax, range over doses): 1.5 to 4.25 h
half-life (plasma, single oral doses 5-600 mg free base equivalent, human, read-out: mean terminal elimination half-life (t1/2z), range over doses): 2.17 to 3.54 days
dose dependence of maximum plasma concentrations (single doses from 5 mg to 400 mg as free base equivalent, human): linearly related to doses
dose dependence of AUC0-∞ (single doses from 5 mg to 480 mg as free base equivalent, human): dose-proportional increase
SMILES: CS(=O)(=O)O.Cc1nc(N(C)C(=O)Cc2ccc(-c3ccccn3)cc2)sc1S(N)(=O)=O [mono mesylate monohydrate salt, N-[5-(aminosulfonyl)-4-methyl-1,3-thiazol-2-yl]-N-methyl-2-[4-(2-pyridinyl)-phenyl]acetamide mono methanesulfonic acid monohydrate]
gender-related difference in exposure (single dose of 80 mg as free base equivalent, after normalization to body weight): No clinical relevant gender-related difference in exposure
exposure as shown by AUC0-∞ at the highest dose (single dose of 600 mg as free base equivalent, human): did not cause any further rise of exposure

— patent US20150374676A1, “HELICASE-PRIMASE INHIBITORS FOR USE IN A METHOD OF TREATING ALZHEIMER'S DISEASE” (AICURIS GMBH & CO. KG, priority 2013, published 2015)
